Source: patent US20250041310A1, “Combination Therapy Comprising A2A/A2B and PD-1/PD-L1 Inhibitors” (Incyte Corporation, priority 2020, published 2025)
Where two headings read alike, the source gives them in different places.

How the values were obtained:
Adenosine A2A Receptor = Adenosine A2A Receptor (Homo sapiens (Human), UniProt P29274); assay: A2A Tag-lite HTRF Assay; assay type: binding; conditions: Tag-lite A2A labeled cells, fluorescent ligand 12.5 nM; read-out: A2A_Ki
Description: Test compounds were first serially diluted in DMSO and 100 nl added to the plate wells before the addition of other reaction components. The final concentration of DMSO was 1%. Tag-lite® Adenosine A2A labeled cells (CisBio C1TT1A2A) were diluted 1:5 into Tag-lite buffer (CisBio LABMED) and spun 1200 g for 5 mins.

[1] = target: human adenosine A2B receptor (Homo sapiens (Human), UniProt P29275); assay: Adenosine A2B Receptor cyclic AMP GS Assay; assay type: cell-based
Description: Stably transfected HEK-293 cells expressing the human adenosine A2B receptor (Perkin Elmer) were maintained in MEM culture medium with 10% FBS and 100 μg/ml Geneticin (Life Technologies). 18 to 24 hours prior to assay, geneticin was removed from culture. The cisbio cAMP-GS Dynamic kit utilizing the FRET (Fluorescence Resonance Energy Transfer) technology was used to measure cAMP accumulation in the cells. Compounds of the present disclosure at an appropriate concentration were mixed with 10000 cells/well in white 96 well half area plates (Perkin Elmer) for 30 min at RT gently shaking. […] Detection reagents, d2-labeled cAMP (acceptor) and anti-cAMP cryptate (donor) were added to each well for 60 min at RT gently shaking.

[2] = tested on: CT-26 murine colon carcinoma hosted in NSG mice; assay: In vivo efficacy study, CT-26 NSG xenograft model; design: species or system mouse; conditions: 10 mg/kg BID, CT-26 in NSG mice lacking T and NK cells
B16 melanoma = assay: In vivo efficacy study, B16 syngeneic melanoma model; design: species or system mouse; conditions: Compound 9 10 mg/kg BID combined with anti-PD-L1
[3] = tested on: PBMC from healthy donors stimulated by CD3 antibody; assay: In vitro Mixed Lineage Reaction assay (MLR); assay type: cell-based; conditions: for effect of combination with atezolizumab: PBMC stimulated with CD3 antibody, FIGS. 2A-2D; for IFNγ production: combined with anti-PD-L1 antibody atezolizumab, 1 μM NECA, CD3 antibody, 4 days
Description: On day 0, 10,000 PBMCs from a healthy donor was co-cultured with 10,000 γ-radiated PBMCs from another healthy donor. […] Cells were incubated at 37° C. for 4 days. IFN-γ in the supernatant of each well was measured by a HTRF kit (Cisbio, 62[…]) and the fluorescent signal was detected on a Pherastar FS plate reader (BMG Labtech) on day 4.

[4] = tested on: primary T cells co-cultured with CHO-PD-L1 cells; conditions: 2 μM NECA
Description: In vitro the CHO-PD-L1 co-culture assay, T cells were treated in the presence of 20 CHO-PD-L1 cells with PD-1 antibody, and using 5′-N-ethylcarboxamide adenosine (NECA), an adenosine-mimicking reagent, to activate adenosine signaling.
Day 0, plate 10,000 CHO PDL1+ cells in Plate 96 Tissue Culture Flat Bottom plate in 100 ul of CHO Media without antibiotics. On day 1, T Cells were thawed and resuspended in T cell media at 1×10^6 cells/ml. Media was removed from the CHO PDL1+ cells plates and 130 ul of T cell media was added. T cell media at 198 ul was added onto the compound plates at 2 ul, or −1:100 dilution and then re-suspended. 20 ul of compounds from the compound plates were added onto the CHO cell plates at a final dilution of compounds at 1:1000. 50 ul of T cells (50,000 cells) were added onto the plates with CHO cells to make a total of 200 ul volume and incubation was carried out at 37° C. for 72 hrs. After 3 days in culture, the supernatant was collected for an hIFNg and hIL2 cytokine assay run using ProCartaplex 2 plex kits (Life Technologies Cat #PPX-02) for hIFNg and hIL2 (Manufacturer's Protocol). The cytokine assay using ProCartaplex kits are run on a Flex Map 3D Luminex multiplexing platform.

[5] = HEK-293 cells, agonist NECA 12 nM, read-out: A2B_cAMP_EC50

Sequence of Adenosine A2A Receptor (P29274 whole entry): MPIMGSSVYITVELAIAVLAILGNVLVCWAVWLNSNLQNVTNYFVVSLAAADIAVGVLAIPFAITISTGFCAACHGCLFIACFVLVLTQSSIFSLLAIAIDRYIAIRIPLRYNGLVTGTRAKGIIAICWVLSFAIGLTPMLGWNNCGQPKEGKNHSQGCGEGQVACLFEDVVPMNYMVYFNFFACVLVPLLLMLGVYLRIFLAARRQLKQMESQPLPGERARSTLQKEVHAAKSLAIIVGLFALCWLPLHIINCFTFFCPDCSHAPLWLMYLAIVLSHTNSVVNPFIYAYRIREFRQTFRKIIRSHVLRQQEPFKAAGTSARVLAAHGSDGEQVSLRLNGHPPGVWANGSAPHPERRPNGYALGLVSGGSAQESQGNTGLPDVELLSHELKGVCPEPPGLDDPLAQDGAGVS
Sequence of human adenosine A2B receptor (P29275 whole entry): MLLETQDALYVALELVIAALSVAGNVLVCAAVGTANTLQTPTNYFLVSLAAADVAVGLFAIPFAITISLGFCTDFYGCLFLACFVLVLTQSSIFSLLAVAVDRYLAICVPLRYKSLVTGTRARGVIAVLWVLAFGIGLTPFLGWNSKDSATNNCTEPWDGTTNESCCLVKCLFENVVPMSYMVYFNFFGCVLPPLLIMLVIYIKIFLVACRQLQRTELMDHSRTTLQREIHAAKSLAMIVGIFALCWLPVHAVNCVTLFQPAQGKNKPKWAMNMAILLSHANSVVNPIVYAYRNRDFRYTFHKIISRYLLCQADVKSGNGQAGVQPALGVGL

Row | Structure (SMILES) | Ki (Adenosine A2A Receptor) | EC50 [1, 5] | other results
1 | N#Cc1cccc(-c2nc(N)n3nc(Cn4nnc(-c5ccccn5)n4)nc3c2-c2ccncn2)c1 [Compound 3] | < 10 nM | < 10 nM | 
2 | N#Cc1cccc(-c2nc(N)c3nc(C(O)c4c(F)cccc4F)nn3c2-c2ccncn2)c1 (single isomer, unassigned) [Compound 10, 3-(8-Amino-2-((2,6-difluorophenyl)(hydroxy)methyl)-5-(pyrimidin-4-yl)-[1,2,4]triazolo[1,5-a]pyrazin-6-yl)benzonitrile] | < 10 nM |  | EC50 [1]: < 10 nM
3 | N#Cc1cccc(-c2nc(N)n3nc(Cn4nnc(-n5cccn5)n4)nc3c2-c2ccncn2)c1 [Compound 21] | < 10 nM | < 10 nM | 
4 | Cn1nc(-c2c(-c3cccc(C#N)c3)nc(N)c3nc(Cc4ccccn4)nn23)ccc1=O [Compound 9, 3-(8-Amino-5-(1-methyl-6-oxo-1,6-dihydropyridazin-3-yl)-2-(pyridin-2-ylmethyl)-[1,2,4]triazolo[1,5-a]pyrazin-6-yl)benzonitrile] | < 10 nM |  | single agent efficacy [2]: no single agent efficacy; tumor growth inhibition (B16 melanoma): 54%; effect of combination with atezolizumab [3]: synergistic effect; IFNγ production [3]: increase IFNγ production significantly; effect of combination with pembrolizumab ([4]; FIG. 1A): synergistic effect; effect of combination with Antibody X ([4]; FIG. 1B): synergistic effect; effect of combination with Compound Y ([4]; FIG. 1C): synergistic effect
5 | N#Cc1cccc(-c2nc(N)n3nc(Cn4nnc(-c5ccccn5)n4)nc3c2-c2ccncn2)c1 [Compound 3A, 3-(5-amino-2-((5-(pyridin-2-yl)-2H-tetrazol-2-yl)methyl)-8-(pyrimidin-4-yl)-[1,2,4]triazolo[1,5-c]pyrimidin-7-yl)benzonitrile] |  |  | effect of combination with atezolizumab [3]: synergistic effect; IFNγ production [3]: increase IFNγ production significantly
6 | N#Cc1cccc(-c2nc(N)c3nn(Cc4ncccc4F)nc3c2-c2ccncn2)c1 [Compound 14, 3-(4-amino-2-((3-fluoropyridin-2-yl)methyl)-7-(pyrimidin-4-yl)-2H-[1,2,3]triazolo[4,5-c]pyridin-6-yl)benzonitrile] | < 10 nM | < 10 nM | 
7 | N#Cc1cccc(-c2cc3nc(C(O)c4c(F)cccc4F)nn3c(N)n2)c1F (stereo not drawn) [Compound 6, 3-(5-Amino-2-((2,6-difluorophenyl)(hydroxy)methyl)-[1,2,4]triazolo[1,5-c]pyrimidin-7-yl)-2-fluorobenzonitrile] | < 10 nM |  | 
8 | Cc1ncoc1-c1c(-c2cccc(C#N)c2)nc(N)c2nc(C(N)c3c(F)cccc3F)nn12 (stereo not drawn) [Compound 11, 3-(8-amino-2-(amino(2,6-difluorophenyl)methyl)-5-(4-methyloxazol-5-yl)-[1,2,4]triazolo[1,5-a]pyrazin-6-yl)benzonitrile] | < 10 nM |  | 
9 | Cc1cc(-c2c(-c3cccc(C#N)c3)nc(N)c3nc(C(O)c4c(F)cccc4F)nn23)cc(C)n1 (single isomer, unassigned) [Compound 12, 3-(8-amino-2-((2,6-difluorophenyl)(hydroxy)methyl)-5-(2,6-dimethylpyridin-4-yl)-[1,2,4]triazolo[1,5-a]pyrazin-6-yl)benzonitrile] | < 10 nM |  | EC50 [1]: 10 to 100 nM
10 | CCCCCn1c2cc(-c3cnn(Cc4cnc5ccsc5c4)c3)[nH]c2c(=O)n2c(C)nnc12 [Compound 19, 3-Methyl-9-pentyl-7-(1-(thieno[3,2-b]pyridin-6-ylmethyl)-1H-pyrazol-4-yl)-6,9-dihydro-5H-pyrrolo[3,2-d][1,2,4]triazolo[4,3-a]pyrimidin-5-one] | < 10 nM |  | 

Continued, in another order:

Row | Ki (Adenosine A2A Receptor) | EC50 [1, 5] | Structure (SMILES) | other results
11 | < 10 nM | < 10 nM | N#Cc1cccc(-c2nc(N)c3nn(Cc4ccccn4)nc3c2-c2ccncn2)c1 [Compound 13, 3-(4-amino-2-(pyridin-2-ylmethyl)-7-(pyrimidin-4-yl)-2H-[1,2,3]triazolo[4,5-c]pyridin-6-yl)benzonitrile] | 
12 | < 10 nM |  | N#Cc1cccc(-c2nc(N)n3nc(C(O)c4c(F)cccc4F)nc3c2C#N)c1F (stereo not drawn) [Compound 7, 5-Amino-7-(3-cyano-2-fluorophenyl)-2-((2,6-difluorophenyl)(hydroxy)methyl)-[1,2,4]triazolo[1,5-c]pyrimidine-8-carbonitrile] | 
13 | < 10 nM | < 10 nM | Cn1nccc1-c1c(-c2cccc(C#N)c2F)nc(N)c2nn(Cc3ccccn3)nc12 [Compound 16, 3-(4-amino-7-(1-methyl-1H-pyrazol-5-yl)-2-(pyridin-2-ylmethyl)-2H-[1,2,3]triazolo[4,5-c]pyridin-6-yl)-2-fluorobenzonitrile] | 
14 | < 10 nM |  | CCCCCn1c2cc(-c3cnn(Cc4cncc(Cl)c4)c3)[nH]c2c(=O)n2c(C)nnc12 [Compound 17, 7-(1-((5-Chloropyridin-3-yl)methyl)-1H-pyrazol-4-yl)-3-methyl-9-pentyl-6,9-dihydro-5H-pyrrolo[3,2-d][1,2,4]triazolo[4,3-a]pyrimidin-5-one] | 
15 | < 10 nM |  | N#Cc1cccc(-c2nc(N)n3nc(Cc4ccccn4)nc3c2-c2ccncn2)c1 [Compound 1, 3-(5-Amino-2-(pyridin-2-ylmethyl)-8-(pyrimidin-4-yl)-[1,2,4]triazolo[1,5-c]pyrimidin-7-yl)benzonitrile] | 
16 | < 10 nM |  | CN1CCC(NCc2cccc(F)c2C(O)c2nc3cc(-c4cccc(C#N)c4F)nc(N)n3n2)C1=O (stereo not drawn) [Compound 8, 3-(5-Amino-2-((2-fluoro-6-(((1-methyl-2-oxopyrrolidin-3-yl)amino)methyl)phenyl)(hydroxy)methyl)-[1,2,4]triazolo[1,5-c]pyrimidin-7-yl)-2-fluorobenzonitrile] | 
17 | < 10 nM |  | CCCCCn1c2cc(-c3cnn(Cc4ccc5c(c4)CCN(C(=O)CN(C)C)C5)c3)[nH]c2c(=O)n2c(C)nnc12 [Compound 20, 7-(1-((2-(2-(Dimethylamino)acetyl)-1,2,3,4-tetrahydroisoquinolin-6-yl)methyl)-1H-pyrazol-4-yl)-3-methyl-9-pentyl-6,9-dihydro-5H-pyrrolo[3,2-d][1,2,4]triazolo[4,3-a]pyrimidin-5-one] | 
18 | < 10 nM | < 10 nM | N#Cc1cccc(-c2nc(N)n3nc(C(O)c4c(F)cccc4F)nc3c2-c2ccncn2)c1 (stereo not drawn) [Compound 2, 3-(5-Amino-2-((2,6-difluorophenyl)(hydroxy)methyl)-8-(pyrimidin-4-yl)-[1,2,4]triazolo[1,5-c]pyrimidin-7-yl)benzonitrile] | 
19 | < 10 nM |  | CCCCCn1c2cc(-c3cnn(Cc4cncc(C)c4)c3)[nH]c2c(=O)n2c(C)nnc12 [Compound 18, 3-Methyl-7-(1-((5-methylpyridin-3-yl)methyl)-1H-pyrazol-4-yl)-9-pentyl-6,9-dihydro-5H-pyrrolo[3,2-d][1,2,4]triazolo[4,3-a]pyrimidin-5-one] | 
20 | < 10 nM |  | Cc1cccnc1COc1nc2c(-c3ccncn3)c(-c3cccc(C#N)c3)nc(N)n2n1 [Compound 4, 3-(5-Amino-2-((3-methylpyridin-2-yl)methoxy)-8-(pyrimidin-4-yl)-[1,2,4]triazolo[1,5-c]pyrimidin-7-yl)benzonitrile] | 
21 | < 10 nM | < 10 nM | N#Cc1cccc(-c2nc(N)c3nn(Cc4ncccc4F)nc3c2-c2ccncc2)c1 [Compound 15, 3-(4-amino-2-((3-fluoropyridin-2-yl)methyl)-7-(pyridin-4-yl)-2H-[1,2,3]triazolo[4,5-c]pyridin-6-yl)benzonitrile] | 
22 | < 10 nM |  | N#Cc1cccc(-c2cc3nc(C(O)c4ccccc4)nn3c(N)n2)c1 (stereo not drawn) [Compound 5, 3-(5-Amino-2-(hydroxy(phenyl)methyl)-[1,2,4]triazolo[1,5-c]pyrimidin-7-yl)benzonitrile] | 
